Assay results published in US11981658B2, “Substituted aminopyridine compounds as EGFR inhibitors” (YUHAN CORPORATION, priority 2021, dated 2024).
Like-named read-outs stand apart in the source and are kept apart here.

Assays:
[1] = molecular target: EGFR Del19/T790M/C797S (Homo sapiens, UniProt P00533, C797S/DEL746-750/T790M); assay: Biochemical EGFR kinase inhibition assay (Lance Ultra TR-FRET), triple mutant del19/T790M/C797S
Procedure, shortened: (§1)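 Enzyme reactions lasted 1 hour at room temperature with test compounds between 0.003 and 10 μM, followed by 10 mM EDTA quench.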

[2] = molecular target: EGFR L858R/T790M/C797S (Homo sapiens, UniProt P00533, C797S/L858R/T790M); assay: Biochemical EGFR kinase inhibition assay (Lance Ultra TR-FRET), triple mutant L858R/T790M/C797S
Procedure, shortened: as §1

[3] = molecular target: EGFR Del19/C797S (Homo sapiens, UniProt P00533, C797S/DEL746-750); assay: Biochemical EGFR kinase inhibition assay (Lance Ultra TR-FRET), double mutant del19/C797S
Chain of EGFR Del19/C797S (P00533 with tags, fused parts or gaps DEL746-750/C797S): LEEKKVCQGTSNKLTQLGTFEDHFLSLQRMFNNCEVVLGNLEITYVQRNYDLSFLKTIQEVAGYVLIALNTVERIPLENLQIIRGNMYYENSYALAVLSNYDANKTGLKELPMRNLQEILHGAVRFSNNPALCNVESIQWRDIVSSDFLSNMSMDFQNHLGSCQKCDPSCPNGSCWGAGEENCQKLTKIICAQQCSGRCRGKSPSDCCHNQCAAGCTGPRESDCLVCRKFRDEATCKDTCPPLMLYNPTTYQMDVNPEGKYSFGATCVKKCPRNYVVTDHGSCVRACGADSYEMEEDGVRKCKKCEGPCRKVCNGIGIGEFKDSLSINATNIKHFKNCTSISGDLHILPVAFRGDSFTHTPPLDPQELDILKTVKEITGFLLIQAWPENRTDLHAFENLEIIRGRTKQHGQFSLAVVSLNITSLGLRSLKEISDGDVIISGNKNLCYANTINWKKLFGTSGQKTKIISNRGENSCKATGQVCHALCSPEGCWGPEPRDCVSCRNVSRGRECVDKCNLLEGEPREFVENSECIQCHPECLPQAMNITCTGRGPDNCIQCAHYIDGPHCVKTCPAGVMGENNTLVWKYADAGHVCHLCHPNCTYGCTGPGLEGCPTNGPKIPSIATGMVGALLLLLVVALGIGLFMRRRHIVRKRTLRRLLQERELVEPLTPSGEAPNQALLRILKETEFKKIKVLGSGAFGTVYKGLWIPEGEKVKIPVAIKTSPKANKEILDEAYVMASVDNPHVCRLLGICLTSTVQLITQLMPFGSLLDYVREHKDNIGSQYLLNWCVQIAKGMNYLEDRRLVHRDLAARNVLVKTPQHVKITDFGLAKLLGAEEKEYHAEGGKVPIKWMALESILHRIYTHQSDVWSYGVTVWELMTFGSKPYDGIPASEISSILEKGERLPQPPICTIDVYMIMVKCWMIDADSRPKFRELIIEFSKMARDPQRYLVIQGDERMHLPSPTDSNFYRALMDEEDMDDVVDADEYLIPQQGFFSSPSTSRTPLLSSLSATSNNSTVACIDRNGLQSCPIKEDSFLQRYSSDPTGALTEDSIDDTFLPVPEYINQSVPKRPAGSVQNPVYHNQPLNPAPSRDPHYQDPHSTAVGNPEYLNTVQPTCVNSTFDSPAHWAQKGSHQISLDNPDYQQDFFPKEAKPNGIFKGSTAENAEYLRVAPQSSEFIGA
Procedure, shortened: as §1

[4] = molecular target: EGFR L858R/C797S (Homo sapiens, UniProt P00533, C797S/L858R); assay: Biochemical EGFR kinase inhibition assay (Lance Ultra TR-FRET), double mutant L858R/C797S
Chain of EGFR L858R/C797S (P00533 25-1210 C797S/L858R): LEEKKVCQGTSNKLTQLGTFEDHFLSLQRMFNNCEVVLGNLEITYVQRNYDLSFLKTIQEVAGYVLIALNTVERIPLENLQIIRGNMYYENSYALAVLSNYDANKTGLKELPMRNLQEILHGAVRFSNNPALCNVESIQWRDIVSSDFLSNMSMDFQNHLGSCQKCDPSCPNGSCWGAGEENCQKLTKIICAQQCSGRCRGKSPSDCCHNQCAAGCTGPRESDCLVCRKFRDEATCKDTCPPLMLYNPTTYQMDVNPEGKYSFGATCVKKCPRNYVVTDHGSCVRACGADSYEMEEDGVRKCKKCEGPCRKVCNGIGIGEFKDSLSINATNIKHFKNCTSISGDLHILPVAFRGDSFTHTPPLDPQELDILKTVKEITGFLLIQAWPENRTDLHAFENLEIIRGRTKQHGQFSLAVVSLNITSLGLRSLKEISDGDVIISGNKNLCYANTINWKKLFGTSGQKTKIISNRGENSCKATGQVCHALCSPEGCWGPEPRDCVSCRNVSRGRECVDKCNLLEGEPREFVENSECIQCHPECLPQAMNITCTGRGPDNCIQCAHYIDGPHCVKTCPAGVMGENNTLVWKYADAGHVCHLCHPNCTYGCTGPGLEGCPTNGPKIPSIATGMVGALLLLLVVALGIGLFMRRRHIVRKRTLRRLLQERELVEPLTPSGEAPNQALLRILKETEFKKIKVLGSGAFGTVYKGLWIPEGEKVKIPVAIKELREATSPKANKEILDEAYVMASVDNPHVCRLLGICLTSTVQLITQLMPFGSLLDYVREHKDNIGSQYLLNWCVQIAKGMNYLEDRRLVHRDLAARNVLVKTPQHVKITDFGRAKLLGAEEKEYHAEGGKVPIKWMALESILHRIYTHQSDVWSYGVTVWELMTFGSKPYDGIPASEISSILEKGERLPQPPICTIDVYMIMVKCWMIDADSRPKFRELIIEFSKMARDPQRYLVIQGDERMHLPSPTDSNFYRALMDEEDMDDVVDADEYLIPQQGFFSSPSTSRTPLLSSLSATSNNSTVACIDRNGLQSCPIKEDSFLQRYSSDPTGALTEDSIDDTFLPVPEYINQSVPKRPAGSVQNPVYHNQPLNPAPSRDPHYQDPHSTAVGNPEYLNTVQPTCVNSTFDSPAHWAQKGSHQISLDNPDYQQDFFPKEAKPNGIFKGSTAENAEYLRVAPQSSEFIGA
Procedure, shortened: as §1

[5] = molecular target: EGFR wildtype (WT) (Homo sapiens, UniProt P00533); assay: Biochemical EGFR kinase inhibition assay (Lance Ultra TR-FRET), wildtype
Chain of EGFR wildtype (WT) (P00533 25-1210): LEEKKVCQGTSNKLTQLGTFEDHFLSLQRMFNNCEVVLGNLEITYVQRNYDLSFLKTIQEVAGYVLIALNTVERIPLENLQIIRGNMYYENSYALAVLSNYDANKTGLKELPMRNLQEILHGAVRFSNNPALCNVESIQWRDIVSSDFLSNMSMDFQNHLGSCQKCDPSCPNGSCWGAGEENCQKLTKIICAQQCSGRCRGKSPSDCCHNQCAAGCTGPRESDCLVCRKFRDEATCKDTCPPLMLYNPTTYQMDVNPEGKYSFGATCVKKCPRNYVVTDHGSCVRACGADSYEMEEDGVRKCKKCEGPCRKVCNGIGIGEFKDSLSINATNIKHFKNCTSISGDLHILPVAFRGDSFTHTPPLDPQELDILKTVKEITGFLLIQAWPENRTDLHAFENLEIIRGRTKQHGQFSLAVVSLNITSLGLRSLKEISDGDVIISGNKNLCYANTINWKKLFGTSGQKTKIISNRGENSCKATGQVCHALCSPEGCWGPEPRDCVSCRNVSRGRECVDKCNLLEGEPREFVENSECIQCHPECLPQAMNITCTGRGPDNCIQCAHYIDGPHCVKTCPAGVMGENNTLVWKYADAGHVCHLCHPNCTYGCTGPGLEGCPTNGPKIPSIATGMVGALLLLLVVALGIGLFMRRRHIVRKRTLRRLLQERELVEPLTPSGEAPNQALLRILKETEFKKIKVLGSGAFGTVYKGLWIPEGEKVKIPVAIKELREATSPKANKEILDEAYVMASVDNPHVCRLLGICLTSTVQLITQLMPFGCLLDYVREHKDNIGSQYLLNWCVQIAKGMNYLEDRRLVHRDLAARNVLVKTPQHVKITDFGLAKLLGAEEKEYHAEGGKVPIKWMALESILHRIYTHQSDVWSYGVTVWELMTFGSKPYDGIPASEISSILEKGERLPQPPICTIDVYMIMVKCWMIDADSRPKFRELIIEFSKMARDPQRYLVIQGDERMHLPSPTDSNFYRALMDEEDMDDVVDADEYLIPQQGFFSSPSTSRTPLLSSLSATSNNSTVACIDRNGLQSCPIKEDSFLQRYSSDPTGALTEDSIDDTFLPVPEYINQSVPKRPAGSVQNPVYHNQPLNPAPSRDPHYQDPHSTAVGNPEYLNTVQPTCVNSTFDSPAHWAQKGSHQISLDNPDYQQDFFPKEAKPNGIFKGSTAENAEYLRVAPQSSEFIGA
Procedure, shortened: as §1

[6] = IC50 Del19/T790M/C797S (nM), 100 μM ATP
[7] = IC50 L858R/T790M/C797S (nM), 100 μM ATP
[8] = IC50 Del19/C797S (nM), 100 μM ATP
[9] = IC50 L858R/C797S (nM), 100 μM ATP
[10] = ATP at Km, read-out: IC50 Del19/T790M/C797S (nM), Km ATP
[11] = ATP at Km, read-out: IC50 L858R/T790M/C797S (nM), Km ATP
[12] = ATP at Km, read-out: IC50 Del19/C797S (nM), Km ATP
[13] = ATP at Km, read-out: IC50 L858R/C797S (nM), Km ATP
[14] = ATP at Km, read-out: IC50 WT (nM), Km ATP
[15] = Km ATP, read-out: IC50 Del19/T790M/C797S (nM), Km ATP
[16] = Km ATP, read-out: IC50 L858R/T790M/C797S (nM), Km ATP
[17] = Km ATP, read-out: IC50 Del19/C797S (nM), Km ATP
[18] = Km ATP, read-out: IC50 L858R/C797S (nM), Km ATP
[19] = Km ATP, read-out: IC50 WT (nM), Km ATP

Chain of EGFR Del19/T790M/C797S (P00533 with tags, fused parts or gaps DEL746-750/T790M/C797S): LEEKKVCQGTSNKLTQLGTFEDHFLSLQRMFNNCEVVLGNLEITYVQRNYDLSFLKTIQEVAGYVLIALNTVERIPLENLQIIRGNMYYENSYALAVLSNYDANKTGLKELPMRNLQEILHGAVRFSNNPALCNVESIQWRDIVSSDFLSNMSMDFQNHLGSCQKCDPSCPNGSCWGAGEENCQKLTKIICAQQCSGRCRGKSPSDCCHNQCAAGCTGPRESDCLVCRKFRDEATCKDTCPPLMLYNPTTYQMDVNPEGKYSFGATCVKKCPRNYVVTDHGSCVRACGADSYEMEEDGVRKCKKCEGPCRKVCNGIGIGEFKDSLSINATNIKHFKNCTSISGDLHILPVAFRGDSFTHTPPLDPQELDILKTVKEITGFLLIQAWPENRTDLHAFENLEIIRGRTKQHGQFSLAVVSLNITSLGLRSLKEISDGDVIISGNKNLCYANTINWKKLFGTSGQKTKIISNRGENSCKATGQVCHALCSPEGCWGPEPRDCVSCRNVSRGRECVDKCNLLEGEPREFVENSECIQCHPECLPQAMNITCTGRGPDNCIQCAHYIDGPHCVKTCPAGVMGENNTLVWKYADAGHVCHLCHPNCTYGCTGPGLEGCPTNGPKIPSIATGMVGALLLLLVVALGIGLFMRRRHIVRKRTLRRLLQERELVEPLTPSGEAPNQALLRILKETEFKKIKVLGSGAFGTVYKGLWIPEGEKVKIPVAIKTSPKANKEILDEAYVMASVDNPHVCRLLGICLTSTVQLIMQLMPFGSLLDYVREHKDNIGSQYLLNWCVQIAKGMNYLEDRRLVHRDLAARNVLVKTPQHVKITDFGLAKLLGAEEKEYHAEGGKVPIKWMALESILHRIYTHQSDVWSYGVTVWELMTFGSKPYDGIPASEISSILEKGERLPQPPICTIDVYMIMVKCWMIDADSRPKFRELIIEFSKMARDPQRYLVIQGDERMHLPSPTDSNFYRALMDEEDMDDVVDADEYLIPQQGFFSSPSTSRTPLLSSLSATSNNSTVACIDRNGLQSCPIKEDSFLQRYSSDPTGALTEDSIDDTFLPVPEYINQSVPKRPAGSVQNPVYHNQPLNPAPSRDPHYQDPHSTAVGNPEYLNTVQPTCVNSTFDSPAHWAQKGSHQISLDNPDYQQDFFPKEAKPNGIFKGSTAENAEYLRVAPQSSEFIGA

IC50 [1, 6] [nM]	IC50 ([1]; Km ATP, read-out: IC50 Del19/T790M/C797S (nM) Km ATP) [nM]	IC50 [2, 7] [nM]	IC50 ([2]; Km ATP, read-out: IC50 L858R/T790M/C797S (nM) Km ATP) [nM]	IC50 [3, 8] [nM]	IC50 ([3]; Km ATP, read-out: IC50 Del19/C797S (nM) Km ATP) [nM]	IC50 [4, 9] [nM]	IC50 ([4]; Km ATP, read-out: IC50 L858R/C797S (nM) Km ATP) [nM]	IC50 ([5]; IC50 WT (nM), 100 μM ATP) [nM]	IC50 ([5]; Km ATP, read-out: IC50 WT (nM) Km ATP) [nM]	IC50 [1, 10] [nM]	IC50 [2, 11] [nM]	IC50 [3, 12] [nM]	IC50 [4, 13] [nM]	IC50 [5, 14] [nM]	IC50 [1, 15] [nM]	IC50 [2, 16] [nM]	IC50 [3, 17] [nM]	IC50 [4, 18] [nM]	IC50 [5, 19] [nM]	SMILES
0.4	0.2	0.2	0.1	0.4	0.2	3.4	0.3	853	1.6	–	–	–	–	–	–	–	–	–	–	CC1(CO)CCN(c2cc(Nc3ccnc(-c4cnn(S(=O)(=O)C5CC5)c4)n3)ncc2C#Cc2cnn3c2CNCC3)CC1 [Example 149, (1-(2-((2-(1-(Cyclopropylsulfonyl)-1H-pyrazol-4-yl)pyrimidin-4-yl)amino)-5-((4,5,6,7-tetrahydropyrazolo[1,5-a]pyrazin-3-yl)ethynyl)pyridin-4-yl)-4-methylpiperidin-4-yl)methanol]
0.3	–	0.3	–	2.3	–	27	–	8010	–	0.3	0.2	1.1	3	9.5	–	–	–	–	–	O=S(=O)(C1CC1)n1cc(-c2nccc(Nc3cc(N[C@H]4CC[C@@H](O)CC4)c(C#CC4CCOCC4)cn3)n2)cn1 [Example 178, (1s,4s)-4-((2-((2-(1-(Cyclopropylsulfonyl)-1H-pyrazol-4-yl)pyrimidin-4-yl)amino)-5-((tetrahydro-2H-pyran-4-yl)ethynyl)pyridin-4-yl)amino)cyclohexan-1-ol]
0.9	–	1.3	–	1.5	–	31.3	–	> 10000	–	–	–	–	–	–	1.5	0.5	0.7	1.5	16.9	CS(=O)(=O)N1CCC(C#Cc2cnc(Nc3ccnc(-c4cnn(S(=O)(=O)C5CC5)c4)n3)cc2NC2CCC(CO)CC2)C1 (centres unmarked) [Example 397, ((1s,4s)-4-((2-((2-(1-(Cyclopropylsulfonyl)-1H-pyrazol-4-yl)pyrimidin-4-yl)amino)-5-((1-(methylsulfonyl)pyrrolidin-3-yl)ethynyl)pyridin-4-yl)amino)cyclohexyl)methanol]
0.2	–	0.2	–	0.4	–	1.3	–	248	–	0.1	0.1	0.3	2.1	0.9	–	–	–	–	–	CN(C)Cc1ccc(C#Cc2cnc(Nc3ccnc(-c4cnn(S(=O)(=O)C5CC5)c4)n3)cc2N2CCC(C)(CO)CC2)cc1 [Example 254, (1-(2-((2-(1-(Cyclopropylsulfonyl)-1H-pyrazol-4-yl)pyrimidin-4-yl)amino)-5-((4-((dimethylamino)methyl)phenyl)ethynyl)pyridin-4-yl)-4-methylpiperidin-4-yl)methanol]
0.1	–	0.1	–	0.3	–	5.1	–	822	–	0.1	0.04	0.3	1.8	1.9	–	–	–	–	–	CNCCC1CCN(c2cc(Nc3ccnc(-c4cnn(S(=O)(=O)C5CC5)c4)n3)ncc2C#Cc2cnn(C)c2)CC1 [Example 153, 2-(1-(Cyclopropylsulfonyl)-1H-pyrazol-4-yl)-N-(5-((1-methyl-1H-pyrazol-4-yl)ethynyl)-4-(4-(2-(methylamino)ethyl)piperidin-1-yl)pyridin-2-yl)pyrimidin-4-amine]
0.9	–	2.3	–	7.3	–	46.2	–	> 10000	–	–	–	–	–	–	–	–	–	–	–	Cn1cc(C#Cc2cnc(Nc3ccnc(-c4cnn(S(=O)(=O)C5CC5)c4)n3)cc2N[C@@H]2CCC[C@H](O)C2)cn1 [Example 45, (1 S,3R)-3-((2-((2-(1-(Cyclopropylsulfonyl)-1H-pyrazol-4-yl)pyrimidin-4-yl)amino)-5-((1-methyl-1H-pyrazol-4-yl)ethynyl)pyridin-4-yl)amino)cyclohexan-1-ol]
129	–	160	–	1950	–	1350	–	> 10000	–	–	–	–	–	> 10000	–	–	–	–	–	CC1(CO)CCN(c2cc(Nc3ccnc(-c4ccc(F)nc4)n3)ncc2C#Cc2cnn(C(F)(F)F)c2)CC1 [Example 269, (1-(2-((2-(6-Fluoropyridin-3-yl)pyrimidin-4-yl)amino)-5-((1-(trifluoromethyl)-1H-pyrazol-4-yl)ethynyl)pyridin-4-yl)-4-methylpiperidin-4-yl)methanol]
9.5	–	3	–	7.9	–	11.2	–	> 10000	–	2	–	3.1	1.9	16.2	–	–	–	–	–	O=S(=O)(C1CC1)n1cc(-c2nccc(Nc3cc(N4CCC5(CCO5)CC4)c(C#Cc4cccnc4)cn3)n2)cn1 [Example 283, 2-(1-(Cyclopropylsulfonyl)-1H-pyrazol-4-yl)-N-(5-(pyridin-3-ylethynyl)-4-(1-oxa-7-azaspiro[3.5]nonan-7-yl)pyridin-2-yl)pyrimidin-4-amine]
0.3	–	0.2	–	0.3	–	3.4	–	206	–	0.1	0.1	0.4	0.6	1.4	–	–	–	–	–	CN(C)CCC1CCN(c2cc(Nc3ccnc(-c4cnn(S(=O)(=O)C5CC5)c4)n3)ncc2C#Cc2cnn(CC(F)F)c2)CC1 [Example 303, 2-(1-(Cyclopropylsulfonyl)-1H-pyrazol-4-yl)-N-(5-((1-(2,2-difluoroethyl)-1H-pyrazol-4-yl)ethynyl)-4-(4-(2-(dimethylamino)ethyl)piperidin-1-yl)pyridin-2-yl)pyrimidin-4-amine]
0.2	–	0.3	–	0.9	–	24.5	–	5310	–	–	–	–	–	–	0.2	0.1	0.6	2	20.1	O=S(=O)(C1CC1)n1cc(-c2nccc(Nc3cc(NC4CCC(O)CC4)c(C#CC4(O)CCOC4)cn3)n2)cn1 (centres unmarked) [Example 356, 3-((6-((2-(1-(Cyclopropylsulfonyl)-1H-pyrazol-4-yl)pyrimidin-4-yl)amino)-4-(((1 s, 4s)-4-hydroxycyclohexyl)amino)pyridin-3-yl)ethynyl)tetrahydrofuran-3-ol]
0.4	–	1.5	–	12	–	140	–	> 10000	–	0.3	0.4	5.3	18.5	23	–	–	–	–	–	CN(C)CC1CCN(c2cc(Nc3ccnc(-c4cnn(S(=O)(=O)C5CC5)c4)n3)ncc2C#Cc2cnn(C3CC3)c2)CC1 [Example 298, N-(5-((1-Cyclopropyl-1H-pyrazol-4-yl)ethynyl)-4-(4-((dimethylamino)methyl)piperidin-1-yl)pyridin-2-yl)-2-(1-(cyclopropylsulfonyl)-1H-pyrazol-4-yl)pyrimidin-4-amine]
10.6	–	9.6	–	21.7	–	98.5	–	> 10000	–	8.3	3.4	7.7	7.4	85.5	–	–	–	–	–	O=S(=O)(C1CC1)n1cc(-c2nccc(Nc3cc(N[C@H]4CCC[C@@H](O)C4)c(C#Cc4ccc(CN5CCOCC5)cc4)cn3)n2)cn1 [Example 159, (1R,3S)-3-((2-((2-(1-(Cyclopropylsulfonyl)-1H-pyrazol-4-yl)pyrimidin-4-yl)amino)-5-((4-(morpholinomethyl)phenyl)ethynyl)pyridin-4-yl)amino)cyclohexan-1-ol]
